Common to all, as to format: cell-based
Assay [1] concerns the target T1, human TLR7 (Homo sapiens, UniProt Q9NYK1).
T1 sequence (Q9NYK1 27-1049): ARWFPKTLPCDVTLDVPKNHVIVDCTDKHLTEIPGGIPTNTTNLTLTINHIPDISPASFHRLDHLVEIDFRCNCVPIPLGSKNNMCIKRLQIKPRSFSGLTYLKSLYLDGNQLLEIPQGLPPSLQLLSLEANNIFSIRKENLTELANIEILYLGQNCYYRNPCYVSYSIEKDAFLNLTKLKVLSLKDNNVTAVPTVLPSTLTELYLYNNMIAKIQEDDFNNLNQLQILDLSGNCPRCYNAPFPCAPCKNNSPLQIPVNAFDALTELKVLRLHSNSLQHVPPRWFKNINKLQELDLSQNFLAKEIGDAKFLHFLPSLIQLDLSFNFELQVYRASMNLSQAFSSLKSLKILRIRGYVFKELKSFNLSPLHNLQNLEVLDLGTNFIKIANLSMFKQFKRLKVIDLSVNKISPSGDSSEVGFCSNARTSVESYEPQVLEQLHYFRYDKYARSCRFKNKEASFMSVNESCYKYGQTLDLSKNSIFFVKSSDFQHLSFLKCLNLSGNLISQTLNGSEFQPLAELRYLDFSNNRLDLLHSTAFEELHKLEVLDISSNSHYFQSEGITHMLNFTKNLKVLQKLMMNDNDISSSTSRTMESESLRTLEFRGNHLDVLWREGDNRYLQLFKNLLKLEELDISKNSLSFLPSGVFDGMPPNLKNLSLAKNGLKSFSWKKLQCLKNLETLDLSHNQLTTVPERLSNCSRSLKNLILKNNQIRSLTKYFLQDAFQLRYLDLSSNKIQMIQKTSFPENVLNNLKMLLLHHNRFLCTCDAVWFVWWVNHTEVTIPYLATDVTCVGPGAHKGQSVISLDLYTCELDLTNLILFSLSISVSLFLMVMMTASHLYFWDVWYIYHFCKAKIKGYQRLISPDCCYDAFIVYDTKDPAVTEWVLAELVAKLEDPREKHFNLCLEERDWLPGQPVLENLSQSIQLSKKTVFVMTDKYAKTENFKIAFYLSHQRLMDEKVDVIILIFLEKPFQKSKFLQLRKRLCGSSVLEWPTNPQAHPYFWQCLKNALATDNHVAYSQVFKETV
In words: TLR7 inhibition reporter assay (HEK-Blue cells, SEAP reporter). The settings on record: HEK-Blue cells overexpressing human TLR7; stimulated with gardiquimod 7.5 μM; 22 hour incubation; SEAP readout. A digest of the protocol:
(§1)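 HEK-Blue cells with an NF-κB/AP-1-driven SEAP reporter were pre-treated 30 min at room temperature with compound (0.05 nM–50 μM), then stimulated with gardiquimod 7.5 μM (TLR7), R848 15.9 μM (TLR8) or ODN2006 5 nM (TLR9). After 22 h at 37 °C, SEAP was read; % inhibition was referenced to agonist+DMSO and known-inhibitor wells.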
Background: A reporter such as luciferase makes a cellular process visible.

For assay [2], the target named is T2, human TLR8 (Homo sapiens, UniProt Q9NR97).
T2 sequence (Q9NR97 27-1041): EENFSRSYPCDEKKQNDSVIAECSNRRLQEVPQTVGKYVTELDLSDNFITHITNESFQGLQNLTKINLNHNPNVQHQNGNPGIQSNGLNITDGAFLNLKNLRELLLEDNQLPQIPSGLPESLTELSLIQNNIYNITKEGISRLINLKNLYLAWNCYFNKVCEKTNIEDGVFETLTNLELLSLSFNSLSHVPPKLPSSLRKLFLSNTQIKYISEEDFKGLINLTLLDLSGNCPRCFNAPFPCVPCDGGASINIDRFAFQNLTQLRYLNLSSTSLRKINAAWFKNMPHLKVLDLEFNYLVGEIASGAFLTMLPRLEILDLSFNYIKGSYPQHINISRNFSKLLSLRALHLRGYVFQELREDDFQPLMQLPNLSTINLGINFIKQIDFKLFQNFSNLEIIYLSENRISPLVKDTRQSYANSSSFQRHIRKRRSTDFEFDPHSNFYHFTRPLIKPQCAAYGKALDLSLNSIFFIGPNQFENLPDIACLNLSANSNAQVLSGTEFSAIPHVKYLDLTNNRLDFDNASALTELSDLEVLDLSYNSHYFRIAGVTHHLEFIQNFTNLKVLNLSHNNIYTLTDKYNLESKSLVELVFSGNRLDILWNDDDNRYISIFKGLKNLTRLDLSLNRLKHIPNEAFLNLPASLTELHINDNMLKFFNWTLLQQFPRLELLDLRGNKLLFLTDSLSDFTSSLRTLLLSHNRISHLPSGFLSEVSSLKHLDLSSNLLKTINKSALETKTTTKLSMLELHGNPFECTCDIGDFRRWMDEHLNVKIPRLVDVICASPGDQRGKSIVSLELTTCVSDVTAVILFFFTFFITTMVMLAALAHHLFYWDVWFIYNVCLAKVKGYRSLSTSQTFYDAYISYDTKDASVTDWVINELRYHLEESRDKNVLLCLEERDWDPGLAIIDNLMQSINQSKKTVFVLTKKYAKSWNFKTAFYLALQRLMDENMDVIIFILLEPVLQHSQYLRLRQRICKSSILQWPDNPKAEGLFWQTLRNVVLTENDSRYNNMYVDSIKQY
Briefly: TLR8 inhibition reporter assay (HEK-Blue cells, SEAP reporter). As to conditions: HEK-Blue cells overexpressing human TLR8; stimulated with R848 15.9 μM; 22 hour incubation; SEAP readout. In a few lines:
as §1

The target in assay [3] is T3, human TLR9 (Homo sapiens, UniProt Q9NR96).
T3 sequence (Q9NR96 26-1032): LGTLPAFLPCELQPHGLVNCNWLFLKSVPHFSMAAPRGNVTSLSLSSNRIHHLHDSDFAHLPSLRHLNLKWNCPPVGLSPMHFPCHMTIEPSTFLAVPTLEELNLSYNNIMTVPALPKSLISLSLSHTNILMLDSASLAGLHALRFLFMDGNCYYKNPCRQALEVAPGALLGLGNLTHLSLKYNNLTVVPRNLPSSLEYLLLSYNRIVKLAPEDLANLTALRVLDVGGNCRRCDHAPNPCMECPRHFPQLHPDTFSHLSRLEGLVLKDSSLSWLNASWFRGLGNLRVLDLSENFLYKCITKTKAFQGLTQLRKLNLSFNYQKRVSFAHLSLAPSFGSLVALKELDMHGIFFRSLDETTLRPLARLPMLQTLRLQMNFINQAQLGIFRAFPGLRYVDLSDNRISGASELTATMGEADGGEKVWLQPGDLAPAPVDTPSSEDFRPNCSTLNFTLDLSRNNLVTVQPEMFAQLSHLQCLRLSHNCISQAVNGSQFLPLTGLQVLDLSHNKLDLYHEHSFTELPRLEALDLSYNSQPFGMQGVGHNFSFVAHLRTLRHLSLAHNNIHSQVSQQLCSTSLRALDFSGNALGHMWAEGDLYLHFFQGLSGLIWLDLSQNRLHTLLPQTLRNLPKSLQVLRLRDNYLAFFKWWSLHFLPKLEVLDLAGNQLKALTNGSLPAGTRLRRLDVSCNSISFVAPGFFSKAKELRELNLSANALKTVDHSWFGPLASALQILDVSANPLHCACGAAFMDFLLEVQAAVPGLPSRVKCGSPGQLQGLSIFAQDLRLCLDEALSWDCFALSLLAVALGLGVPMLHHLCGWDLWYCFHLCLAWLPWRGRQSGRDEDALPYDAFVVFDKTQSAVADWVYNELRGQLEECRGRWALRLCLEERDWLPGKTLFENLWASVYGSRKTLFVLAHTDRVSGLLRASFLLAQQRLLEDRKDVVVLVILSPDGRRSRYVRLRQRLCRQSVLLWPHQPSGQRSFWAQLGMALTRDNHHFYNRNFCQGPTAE
In words: TLR9 inhibition reporter assay (HEK-Blue cells, SEAP reporter). The settings on record: HEK-Blue cells overexpressing human TLR9; stimulated with ODN2006 5 nM; 22 hour incubation; SEAP readout. A digest of the protocol:
as §1

pIC50: −log10 of the molar value.

For `CS(=O)(=O)c1ccc(-c2cn3c(n2)CC[C@H](C2CCN(C4CC5CCC(C4)N5CC4CC4)CC2)C3)cc1` (single isomer, unassigned) [Example 139], the pIC50 (in general, the IC50 on a negative log10 scale, so that one unit is a factor of ten) in assay [1] was 4.97; in assay [2] it was less than 4.30; in assay [3] it was 7.48.

For the molecule `CS(=O)(=O)c1ccc(-c2cn3c(n2)CC[C@@H](C2CCN(C4CC5CCC(C4)N5CC4CC4)CC2)C3)cc1` (single isomer, unassigned) [Example 140], the results for the negative-log IC50 (pIC50) in assay [1], in assay [2] and in assay [3] were less than 4.30, less than 4.30 and 6.45, respectively.

As for `CS(=O)(=O)c1ccc(-c2cn3c(n2)CC[C@@H](C2CCN(C4CC5CCC(C4)N5CC4CC4)CC2)C3)cc1` (single isomer, unassigned) [Example 141], the values for the negative-log IC50 (pIC50) in assay [1], in assay [2] and in assay [3] were 4.80, less than 4.30 and 7.64, respectively.

Regarding `COc1ccc(-c2cn3cc(C4CCN(C5CCN(C6CC6)CC5)CC4)cc(C)c3n2)cc1OC` [Example 1, 6-(1′-cyclopropyl-[1,4′-bipiperidin]-4-yl)-2-(3,4-dimethoxyphenyl)-8-methylimidazo [1,2-a]pyridine], the negative logarithm of the IC50 (pIC50) was 4.85 in assay [1], less than 4.30 in assay [2] and 7.25 in assay [3].

`COc1ccc(-c2cn3cc(C4CCN(C5CCN(C(C)C)CC5)CC4)cc(C)c3n2)cc1OC` [Example 2, 2-(3,4-dimethoxyphenyl)-6-(1′-isopropyl-[1,4′-bipiperidin]-4-yl)-8-methylimidazo[1,2-a]pyridine]: the pIC50 is 5.42 in assay [1], less than 4.30 in assay [2] and 7.28 in assay [3].

In the case of `COc1ccc(-c2cn3cc(C4CCN(C5CCN(CC(C)C)CC5)CC4)cc(C)c3n2)cc1OC` [Example 3, 2-(3,4-dimethoxyphenyl)-6-(1′-isobutyl-[1,4′-bipiperidin]-4-yl)-8-methylimidazo[1,2-a]pyridine], the results for the negative-log IC50 (pIC50) in assay [1], in assay [2] and in assay [3] were 5.74, less than 4.30 and 7.49, respectively.

On to `COc1ccc(-c2cn3cc(C4CCN(C5CCN(C6CC6)CC5)CC4)cc(C)c3n2)cc1F` [Example 4, 6-(1′-cyclopropyl-[1,4′-bipiperidin]-4-yl)-2-(3-fluoro-4-methoxyphenyl)-8-methylimidazo[1,2-a]pyridine], for which the negative-log IC50 (pIC50) was 5.26 in assay [1], less than 4.30 in assay [2] and 6.84 in assay [3].

As for `COc1ccc(-c2cn3cc(C4CCN(C5CCN(C(C)C)CC5)CC4)cc(C)c3n2)cc1F` [Example 5, 2-(3-fluoro-4-methoxyphenyl)-6-(1′-isopropyl-[1,4′-bipiperidin]-4-yl)-8-methylimidazo[1,2-a]pyridine], the negative-log IC50 (pIC50) is 5.52 in assay [1], less than 4.30 in assay [2] and 6.78 in assay [3].

Take `COc1ccc(-c2cn3cc(C4CCN(C5CCN(CC(C)C)CC5)CC4)cc(C)c3n2)cc1F` [Example 6, 2-(3-fluoro-4-methoxyphenyl)-6-(1′-isobutyl-[1,4′-bipiperidin]-4-yl)-8-methylimidazo[1,2-a]pyridine]: the pIC50 was 4.80 in assay [1], less than 4.30 in assay [2] and 6.60 in assay [3].

`Cc1cc(C2CCN(C3CCN(C4CC4)CC3)CC2)cn2cc(-c3ccc(S(C)(=O)=O)cc3)nc12` [Example 7, 6-(1′-cyclopropyl-[1,4′-bipiperidin]-4-yl)-8-methyl-2-(4-(methylsulfonyl)phenyl) imidazo[1,2-a]pyridine]: the figures for the pIC50 in assay [1], in assay [2] and in assay [3] were 5.11, less than 4.30 and 6.88, respectively.

`Cc1cc(C2CCN(C3CCN(C(C)C)CC3)CC2)cn2cc(-c3ccc(S(C)(=O)=O)cc3)nc12` [Example 8, 6-(1′-isopropyl-[1,4′-bipiperidin]-4-yl)-8-methyl-2-(4-(methylsulfonyl)phenyl) imidazo[1,2-a]pyridine]: the pIC50 in assay [1] is 5.64; in assay [2] it was less than 4.30; in assay [3], 7.68.

Turning to `Cc1cc(C2CCN(C3CCN(CC(C)C)CC3)CC2)cn2cc(-c3ccc(S(C)(=O)=O)cc3)nc12` [Example 9, 6-(1′-isobutyl-[1,4′-bipiperidin]-4-yl)-8-methyl-2-(4-(methylsulfonyl)phenyl) imidazo[1,2-a]pyridine], the pIC50 is 5.48 in assay [1], less than 4.30 in assay [2] and 7.38 in assay [3].

With `COc1ccc(-c2cn3cc(C4CCN(C5CCN(C6CC6)CC5)CC4)ccc3n2)cc1OC` [Example 10, 6-(1′-cyclopropyl-[1,4′-bipiperidin]-4-yl)-2-(3,4-dimethoxyphenyl)imidazo[1,2-a]pyridine], the negative-log IC50 (pIC50) was 5.28 in assay [1], less than 4.30 in assay [2] and 6.89 in assay [3].

Take `COc1ccc(-c2cn3cc(C4CCN(C5CCN(C(C)C)CC5)CC4)ccc3n2)cc1OC` [Example 11, 2-(3,4-dimethoxyphenyl)-6-(1′-isopropyl-[1,4′-bipiperidin]-4-yl)imidazo[1,2-a]pyridine]: the values for the negative logarithm of the IC50 (pIC50) in assay [1], in assay [2] and in assay [3] were 5.25, less than 4.30 and 7.11, respectively.

The values above are taken from patent US12486267B2, “Imidazo[1,2-A]pyridine and [1,2,4]triazolo[1,5-A]pyridine derivatives as TLR9 inhibitors for the treatment of fibrosis” (BRISTOL-MYERS SQUIBB COMPANY, priority 2020, dated 2025).
